Test results reported in US11230711B2, “Inhibition of LET7I as a means to enhance the protective effect of progesterone against stroke” (UNIVERSITY OF NORTH TEXAS HEALTH SCIENCE CENTER, priority 2017, dated 2022).

Assays:
[1] = tested on: primary cortical astrocytes; experiment: BDNF release from primary cortical astrocytes, BDNF in situ ELISA; type: cell-based, mouse
Procedure: To define the amount of endogenous BDNF released, we will modify the ELISA in situ protocol developed by Promega. A 96-well Nunc MaxiSorp surface polystyrene flat-bottom immunoplate was precoated with an anti-BDNF monoclonal antibody [diluted 1:1,000 in coating buffer (25 mM sodium bicarbonate and 25 mM sodium carbonate, pH 9.7)]. After rinsing off unbound antibody with TBS-T buffer [20 mM Tris-HCl (pH 7.6), 150 mM NaCl and 0.05% (v/v) Tween-20] and blocking the plate to minimize nonspecific binding, the culture media was added to the plate for 2 hrs to equilibrate the cell growth environment. […] The amount of specifically bound polyclonal antibody was then detected through the use of the anti-IgY-horseradish peroxidase (HRP) tertiary antibody (final concentration=0.5 μg/mL), which when exposed to the chromogenic substrate (TMB reagent; Promega), changes color in proportion to the amount of BDNF present in the sample. The color intensity was quantified by measuring the absorbance at 450 nm with a Viktor3 ELISA plate reader (Perkin Elmer). […] The amount of specifically bound polyclonal antibody was then detected through the use of the anti-IgY-horseradish peroxidase (HRP) tertiary antibody, which when exposed to the chromogenic substrate (TMB reagent, Promega), changes color in proportion to the amount of BDNF present in the sample. […]

[2] = tested on: let-7i; experiment: let-7i expression in the penumbra of the ischemic brain after MCAo (qRT-PCR); type: in vivo, mouse; settings: MCAo mice; day 7 up to 14 days following stroke; FIG. 11E
From the text: (FIG. 11A) Representative immunoblots probed for Pgrmc1, pro- and mature-BDNF. (FIG. 11B) Quantitation graph of relative Pgrmc1 protein ratio to Gapdh (n=4-5 per group). (FIG. 11C) Quantitation graph of relative pro-BDNF protein ratio to Gapdh (n=4-5 per group). (FIG. 11D) Quantitation graph of relative mature BDNF protein ratio to Gapdh (n=4-5 per group). (FIG. 11E) Quantitation graph of relative let-7i expression in ischemic brain (n=4-5 per group). n.s: not significant, ** P<0.01 and *P<0.05 compared to sham, and #P<0.05 compared to P4+scrambled. Data are presented as the mean±SEM.
For miRNA expression measurements, total RNA (10 ng) was reverse transcribed into cDNA in a total volume of 15 μl using the microRNA cDNA Archive Kit (ThermoFisher Scientific) according to the manufacturer's instructions. The reaction mixture contained water, 2× quantitative PCR Master Mix (Eurogentec), and 20× Assay-On-Demand for each target gene. A separate reaction mixture was prepared for the endogenous control, U6. The reaction mixture was aliquoted in a 96-well plate, and cDNA added to give a final volume of 20 μl. Each sample was analyzed in triplicate. The comparative cycle threshold (Ct) method (2^−ΔΔCt) was used to calculate the relative changes in target miRNA expression.
All mice were first ovariectomized to deplete endogenous ovarian hormone levels. […]

## CC(=O)[C@H]1CC[C@H]2[C@@H]3CCC4=CC(=O)CC[C@]4(C)[C@H]3CC[C@]12C [P4, progesterone]
[1]; astrocyte cultures, control cultures as little as 2 pg/ml
  BDNF release in P4-treated cultures: ~250 pg/mL
[1]; primary cortical astrocytes exposed to one-hour OGD, FIG. 8B
  P4-induced BDNF release after OGD: compromised
[2]
  stroke-induced increase in let-7i expression in the penumbra: did not attenuate
